Laboratory results: the supplement of paper PMC11451515

How the values were obtained:
Conditions in all cases: 48 h
P12-Ichikawa [1] = test: AUC of viability dose-response curve (% viability x log10 dose units); higher = less sensitive
Procedure, shortened: (§1)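 Viability of medium-adapted leukemia cells was measured by CellTiter-Glo One luminescence after 48 h at 37°C with library compounds in DMSO. Doses were 11 threefold steps from 47 μM to 0.79 nM, in 1536-well plates at 500 or 1000 cells/well. Signals were normalised per plate to DMSO and cell-free wells and fitted with a four-parameter log-logistic model on log10 dose. Area under the curve was integrated by trapezoidal rule, with curves exceeding full viability scaled and failed quality-control curves removed.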

SEM cells [2] = test: as above
Procedure, shortened: as §1

NOMO1 [3] = test: as above
Procedure, shortened: as §1

P12-Ichikawa [4] = test: cell viability relative to DMSO control; higher = less cytotoxic
Procedure, shortened: (§2)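 In 1536-well plates, 5 μl of leukemia cells were seeded per well: 500 cells/well for NOMO1 or SEM and 1000 cells/well for P12-Ichikawa. Each line had first been adapted for at least four passages in each medium. Library compounds in DMSO were pin-dosed at 11 threefold concentrations between 47 μM and 0.79 nM, and CellTiter-Glo One luminescence was read after 48 h at 37°C. Viability is a per-plate percentage relative to DMSO wells, with cell-free wells as background.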

SEM cells [5] = test: as above
Procedure, shortened: as §2

NOMO1 [6] = test: as above
Procedure, shortened: as §2

CO/N=C(\C(=O)N[C@@H]1C(=O)N2C(C(=O)OCOC(=O)C(C)(C)C)=C(/C=C\c3scnc3C)CS[C@H]12)c1csc(N)n1
AUC of viability dose-response curve
Conditions	NOMO1 [3]	P12-Ichikawa [1]	SEM cells [2]
HPLM + 10% dialyzed FBS	453	463	419
RPMI 5 mM glucose + 10% FBS	448	449	412
RPMI 5 mM glucose + 10% dialyzed FBS	398	451	453

cell viability [%]
Conditions	NOMO1 [6]	P12-Ichikawa [4]	SEM cells [5]
HPLM + 10% dialyzed FBS, 0.000781 µM	81.6	91.7	75.6
HPLM + 10% dialyzed FBS, 0.00234 µM	111	102	89.4
HPLM + 10% dialyzed FBS, 0.00702 µM	103	105	86.9
HPLM + 10% dialyzed FBS, 0.0211 µM	93.3	104	80.8
HPLM + 10% dialyzed FBS, 0.0632 µM	102	108	93.7
HPLM + 10% dialyzed FBS, 0.19 µM	87.7	110	101
HPLM + 10% dialyzed FBS, 0.569 µM	109	106	94.8
HPLM + 10% dialyzed FBS, 1.71 µM	102	106	97.3
HPLM + 10% dialyzed FBS, 5.12 µM	106	110	86.7
HPLM + 10% dialyzed FBS, 15.4 µM	81.7	89.8	90.6
HPLM + 10% dialyzed FBS, 46.1 µM	42.9	72.4	70.4
RPMI 5 mM glucose + 10% FBS, 0.000781 µM	81	85.6	87.1
RPMI 5 mM glucose + 10% FBS, 0.00234 µM	106	91.6	90.7
RPMI 5 mM glucose + 10% FBS, 0.00702 µM	92.8	101	91.4
RPMI 5 mM glucose + 10% FBS, 0.0211 µM	98.9	99.6	76.6
RPMI 5 mM glucose + 10% FBS, 0.0632 µM	104	101	89
RPMI 5 mM glucose + 10% FBS, 0.19 µM	104	103	103
RPMI 5 mM glucose + 10% FBS, 0.569 µM	99.4	96.4	91.5
RPMI 5 mM glucose + 10% FBS, 1.71 µM	92.5	103	98.9
RPMI 5 mM glucose + 10% FBS, 5.12 µM	95	103	86.5
RPMI 5 mM glucose + 10% FBS, 15.4 µM	84.6	75.8	65.2
RPMI 5 mM glucose + 10% FBS, 46.1 µM	58.2	60.1	58.5
RPMI 5 mM glucose + 10% dialyzed FBS, 0.000781 µM	72.8	92	75.3
RPMI 5 mM glucose + 10% dialyzed FBS, 0.00234 µM	83.9	89.6	101
RPMI 5 mM glucose + 10% dialyzed FBS, 0.00702 µM	88	102	108
RPMI 5 mM glucose + 10% dialyzed FBS, 0.0211 µM	80.9	91.8	93.7
RPMI 5 mM glucose + 10% dialyzed FBS, 0.0632 µM	91.1	104	119
RPMI 5 mM glucose + 10% dialyzed FBS, 0.19 µM	83.9	106	102
RPMI 5 mM glucose + 10% dialyzed FBS, 0.569 µM	96.2	99.2	99.4
RPMI 5 mM glucose + 10% dialyzed FBS, 1.71 µM	99.1	98.7	125
RPMI 5 mM glucose + 10% dialyzed FBS, 5.12 µM	88	102	105
RPMI 5 mM glucose + 10% dialyzed FBS, 15.4 µM	70	80.9	73
RPMI 5 mM glucose + 10% dialyzed FBS, 46.1 µM	48.6	57.2	62.9

CCOc1ccc(Cc2cc([C@@H]3O[C@H](CO)[C@@H](O)[C@H](O)[C@H]3O)ccc2Cl)cc1
AUC of viability dose-response curve
Conditions	NOMO1 [3]	P12-Ichikawa [1]	SEM cells [2]
HPLM + 10% dialyzed FBS	470	459	465
RPMI 5 mM glucose + 10% FBS	464	466	450
RPMI 5 mM glucose + 10% dialyzed FBS	476	469	468

cell viability [%]
Conditions	NOMO1 [6]	P12-Ichikawa [4]	SEM cells [5]
HPLM + 10% dialyzed FBS, 0.000781 µM	–	123	113
HPLM + 10% dialyzed FBS, 0.00234 µM	–	124	108
HPLM + 10% dialyzed FBS, 0.00702 µM	–	120	120
HPLM + 10% dialyzed FBS, 0.0211 µM	–	84.8	107
HPLM + 10% dialyzed FBS, 0.0632 µM	–	125	126
HPLM + 10% dialyzed FBS, 0.19 µM	–	134	125
HPLM + 10% dialyzed FBS, 0.569 µM	–	129	117
HPLM + 10% dialyzed FBS, 1.71 µM	–	123	121
HPLM + 10% dialyzed FBS, 5.12 µM	–	127	115
HPLM + 10% dialyzed FBS, 15.4 µM	–	126	128
HPLM + 10% dialyzed FBS, 46.1 µM	–	123	113
RPMI 5 mM glucose + 10% FBS, 0.000781 µM	114	–	102
RPMI 5 mM glucose + 10% FBS, 0.00234 µM	133	–	110
RPMI 5 mM glucose + 10% FBS, 0.00702 µM	124	–	110
RPMI 5 mM glucose + 10% FBS, 0.0211 µM	125	–	89.5
RPMI 5 mM glucose + 10% FBS, 0.0632 µM	138	–	106
RPMI 5 mM glucose + 10% FBS, 0.19 µM	128	–	124
RPMI 5 mM glucose + 10% FBS, 0.569 µM	128	–	112
RPMI 5 mM glucose + 10% FBS, 1.71 µM	136	–	121
RPMI 5 mM glucose + 10% FBS, 5.12 µM	124	–	121
RPMI 5 mM glucose + 10% FBS, 15.4 µM	133	–	115
RPMI 5 mM glucose + 10% FBS, 46.1 µM	129	–	118
RPMI 5 mM glucose + 10% dialyzed FBS, 0.000781 µM	–	–	116
RPMI 5 mM glucose + 10% dialyzed FBS, 0.00234 µM	–	–	104
RPMI 5 mM glucose + 10% dialyzed FBS, 0.00702 µM	–	–	128
RPMI 5 mM glucose + 10% dialyzed FBS, 0.0211 µM	–	–	85.6
RPMI 5 mM glucose + 10% dialyzed FBS, 0.0632 µM	–	–	117
RPMI 5 mM glucose + 10% dialyzed FBS, 0.19 µM	–	–	124
RPMI 5 mM glucose + 10% dialyzed FBS, 0.569 µM	–	–	129
RPMI 5 mM glucose + 10% dialyzed FBS, 1.71 µM	–	–	122
RPMI 5 mM glucose + 10% dialyzed FBS, 5.12 µM	–	–	119
RPMI 5 mM glucose + 10% dialyzed FBS, 15.4 µM	–	–	117
RPMI 5 mM glucose + 10% dialyzed FBS, 46.1 µM	–	–	105

Nc1ncnc2c1c(-c1cccc(OCc3ccccc3)c1)cn2C1CC(CN2CCCC2)C1 (stereo not given)
AUC of viability dose-response curve
Conditions	NOMO1 [3]	P12-Ichikawa [1]	SEM cells [2]
HPLM + 10% dialyzed FBS	411	463	388
RPMI 5 mM glucose + 10% FBS	441	466	414
RPMI 5 mM glucose + 10% dialyzed FBS	423	465	405

cell viability [%]
Conditions	NOMO1 [6]	P12-Ichikawa [4]	SEM cells [5]
HPLM + 10% dialyzed FBS, 0.000781 µM	113	116	97.6
HPLM + 10% dialyzed FBS, 0.00234 µM	133	128	112
HPLM + 10% dialyzed FBS, 0.00702 µM	124	120	120
HPLM + 10% dialyzed FBS, 0.0211 µM	124	130	108
HPLM + 10% dialyzed FBS, 0.0632 µM	141	134	113
HPLM + 10% dialyzed FBS, 0.19 µM	134	128	111
HPLM + 10% dialyzed FBS, 0.569 µM	119	133	89.8
HPLM + 10% dialyzed FBS, 1.71 µM	90.4	124	83.1
HPLM + 10% dialyzed FBS, 5.12 µM	94.2	134	63.8
HPLM + 10% dialyzed FBS, 15.4 µM	78.1	121	45.4
HPLM + 10% dialyzed FBS, 46.1 µM	36.2	62.4	29.6
RPMI 5 mM glucose + 10% FBS, 0.000781 µM	–	–	89.4
RPMI 5 mM glucose + 10% FBS, 0.00234 µM	–	–	113
RPMI 5 mM glucose + 10% FBS, 0.00702 µM	–	–	125
RPMI 5 mM glucose + 10% FBS, 0.0211 µM	–	–	115
RPMI 5 mM glucose + 10% FBS, 0.0632 µM	–	–	128
RPMI 5 mM glucose + 10% FBS, 0.19 µM	–	–	121
RPMI 5 mM glucose + 10% FBS, 0.569 µM	–	–	103
RPMI 5 mM glucose + 10% FBS, 1.71 µM	–	–	95.3
RPMI 5 mM glucose + 10% FBS, 5.12 µM	–	–	87.8
RPMI 5 mM glucose + 10% FBS, 15.4 µM	–	–	54.8
RPMI 5 mM glucose + 10% FBS, 46.1 µM	–	–	31.5

c1ccc(-c2oc3ncnc(NC[C@@H]4CCCO4)c3c2-c2ccccc2)cc1
AUC of viability dose-response curve
Conditions	NOMO1 [3]	P12-Ichikawa [1]	SEM cells [2]
HPLM + 10% dialyzed FBS	454	461	468
RPMI 5 mM glucose + 10% FBS	467	454	463
RPMI 5 mM glucose + 10% dialyzed FBS	454	455	467

cell viability [%]
Conditions	NOMO1 [6]	P12-Ichikawa [4]	SEM cells [5]
HPLM + 10% dialyzed FBS, 0.000781 µM	114	–	115
HPLM + 10% dialyzed FBS, 0.00234 µM	113	–	115
HPLM + 10% dialyzed FBS, 0.00702 µM	134	–	114
HPLM + 10% dialyzed FBS, 0.0211 µM	113	–	121
HPLM + 10% dialyzed FBS, 0.0632 µM	134	–	126
HPLM + 10% dialyzed FBS, 0.19 µM	128	–	130
HPLM + 10% dialyzed FBS, 0.569 µM	123	–	125
HPLM + 10% dialyzed FBS, 1.71 µM	126	–	134
HPLM + 10% dialyzed FBS, 5.12 µM	112	–	128
HPLM + 10% dialyzed FBS, 15.4 µM	103	–	121
HPLM + 10% dialyzed FBS, 46.1 µM	62	–	79.4
RPMI 5 mM glucose + 10% FBS, 0.000781 µM	102	–	111
RPMI 5 mM glucose + 10% FBS, 0.00234 µM	110	–	112
RPMI 5 mM glucose + 10% FBS, 0.00702 µM	112	–	109
RPMI 5 mM glucose + 10% FBS, 0.0211 µM	114	–	103
RPMI 5 mM glucose + 10% FBS, 0.0632 µM	120	–	108
RPMI 5 mM glucose + 10% FBS, 0.19 µM	120	–	110
RPMI 5 mM glucose + 10% FBS, 0.569 µM	117	–	105
RPMI 5 mM glucose + 10% FBS, 1.71 µM	109	–	106
RPMI 5 mM glucose + 10% FBS, 5.12 µM	110	–	112
RPMI 5 mM glucose + 10% FBS, 15.4 µM	112	–	99.9
RPMI 5 mM glucose + 10% FBS, 46.1 µM	63.8	–	61.1
RPMI 5 mM glucose + 10% dialyzed FBS, 0.000781 µM	–	109	121
RPMI 5 mM glucose + 10% dialyzed FBS, 0.00234 µM	–	118	129
RPMI 5 mM glucose + 10% dialyzed FBS, 0.00702 µM	–	120	115
RPMI 5 mM glucose + 10% dialyzed FBS, 0.0211 µM	–	113	118
RPMI 5 mM glucose + 10% dialyzed FBS, 0.0632 µM	–	127	104
RPMI 5 mM glucose + 10% dialyzed FBS, 0.19 µM	–	124	136
RPMI 5 mM glucose + 10% dialyzed FBS, 0.569 µM	–	128	111
RPMI 5 mM glucose + 10% dialyzed FBS, 1.71 µM	–	115	112
RPMI 5 mM glucose + 10% dialyzed FBS, 5.12 µM	–	112	118
RPMI 5 mM glucose + 10% dialyzed FBS, 15.4 µM	–	103	124
RPMI 5 mM glucose + 10% dialyzed FBS, 46.1 µM	–	49.8	69.6
